{"source": "patent US7235536B2", "about": "“Cellulose sulfate and other sulfated polysaccharides to prevent and treat papilloma virus infection and other infections” (Rush Presbyterian-St. Luke's Medical Center, priority 2000, dated 2007)", "key": {"Bacteroides fragilis [1]": {"system": "Bacteroides fragilis", "details": "Agar"}, "Porphyromonas levii": {"system": "Porphyromonas levii", "assay": "Agar method MIC", "type": "cell-based", "details": "for CS MIC: Agar"}, "Eubacterium lentum": {"system": "Eubacterium lentum", "assay": "Broth method MIC", "type": "cell-based", "details": "for CS MIC: Broth (study 2)"}, "[2]": {"system": "Bacteroides thetaiotaomicron", "assay": "Broth method MIC", "type": "cell-based"}, "HPV-11": {"system": "HPV-11", "assay": "RT-PCR ELISA for transient infection of human A431 cells, HPV-11", "type": "cell-based, human papilloma virus", "details": "with virus (HPV-11)", "procedure": "Cellulose sulfate and dextran sulfate were each prepared as a 2 mg/ml solution in 0.9% NaCl and tested for microbicidal activity using the in vitro HPV transient infection assay originally described by Smith and colleagues (Smith, L. H., C. Foster, M. E. Hitchcock, and R. Isseroff. 1993. In vitro HPV-11 infection of human foreskin. J. Invest. Dermatol. 101:292-295) with some modifications (Ludmerer, S. W., W. L. McClements, X. M. Wang, J. C. Ling, K. U. Jansen, and N. D. Christensen. 2000. HPV11 mutant virus-like parties elicit immune responses that neutralize virus and delineate a novel neutralizing domain. Virology 266:237-245). An ELISA-based read-out of Optical Density (OD) values using alkaline phosphatase cleavage of the substrate p-nitrophenyl phosphate was also used to measure HPV infection as described below.\nA modification of the RT-PCR assay that incorporates an ELISA-based read-out (Boehringer-Mannheim) was also included to assess microbicidal activity. Replicate cell cultures of A431 cells were infected with an aliquot of infectious HPV virions as described above. After 4 days of culture, cells were harvested and RNA extracted. RNA was subjected to RT using downstream anti-sense (reverse) primers for HPV-11 or HPV-40 and β-actin (as a control/housekeeping cellular transcript) to initiate cDNA synthesis. The cDNA was processed through 2 sets of 30 cycles of PCR amplification using nested primers: the second set of cycles used digoxygenin (DIG)-dUTP to label the PCR products with DIG. DIG-labeled PCR products were denatured then renatured together with a biotinylated oligonucleotide specific for the targeted PCR product. Biotinylated products were detected in ELISA with plates coated with streptavidin (to capture the biotinylated target PCR product) then anti-DIG antibody and substrate. Labeled PCR products were added directly to ELISA plates, or titrated at 10-fold dilutions in duplicate for each cell culture for each virus dilution."}, "Gardnerella vaginalis [3]": {"system": "Gardnerella vaginalis", "assay": "Agar well growth inhibition on HBT bilayer agar plates", "type": "cell-based", "procedure": "A fresh subculture of G. Vaginalis which is bacteria frequently associated with vaginitis was obtained after overnight growth (16 hours) on a V-agar plate and suspended in sterile phosphate buffered saline (PBS; pH 7.2) to achieve a turbidity of 0.5 (McFarland standard; approximately 10^8 CFU/ml). The suspension was diluted 10 fold and applied to HBT bilayer agar plates by swabbing the entire plate. The plate was allowed to dry for 2-3 min and small wells punched in the agar, 10 mm in diameter. Samples of cellulose sulfate were dissolved at 10 mg/ml in PBS and 0.2 ml placed in the agar wells. As control, 0.2 ml PBS was placed in one of the wells. Growth inhibition was indicated by a light area around the well.\nThe studies were repeated using various concentrations of cellulose sulfate (ranging from 10 mg/ml to 0.125 mg/ml) and 4 different Gardnerella vaginalis strains. […] The lowest initial concentration of cellulose sulfate at which growth inhibition occurred was 0.5 mg/ml."}, "BPV-1": {"system": "BPV-1", "assay": "BPV-1 focus-forming assay, cells pre-incubated with compound and washed before virus (Table D)", "type": "cell-based, bovine papilloma virus", "details": "for Average ± standard deviation (foci/well): C127-D10 cells, washed before virus", "procedure": "Microbicidal activity of compounds was also tested by pre-incubation of cells with compounds followed by addition of virus to compound-coated C127 cells. In these experiments, dilutions of compounds were added to cultures of C127 cells, incubated for 1 hr at 37° C., washed 3 times with media to remove unbound compound, prior to addition of approximately 100 focus-forming units of BPV-1. The cultures were incubated for an additional hour, washed three times to remove unbound virus, then the incubation was continued for two weeks with media changes every 3-4 days and foci counted as described above.\nPre-incubation of C127-D10 cells with compounds prior to addition of BPV-1 was tested to determine whether the microbicidal effects of CS and DS extended to a blockage of virus interaction with cell surfaces. In these experiments, titrations of compounds were added to cell cultures followed by washing away unbound reagent prior to addition of virus. After a one-hour incubation with virus, unbound virus was removed by washing and the cultures monitored for foci after two weeks."}, "Gardnerella vaginalis [4]": {"system": "Gardnerella vaginalis", "assay": "Broth method MIC", "type": "cell-based", "details": "for CS MIC: Broth (study 2)"}, "Bacteroides fragilis [5]": {"system": "Bacteroides fragilis", "assay": "Broth method MIC", "type": "cell-based"}, "[6]": {"details": "ATCC (first listed), Broth (study 1)"}, "[7]": {"details": "ATCC (first listed), Broth (study 2)"}, "[8]": {"details": "ATCC (second listed), Broth (study 2)"}}, "note": "Where two headings read alike, the source gives them in different places. Marks after values point to notes of the source that are not given here.", "data": [{"substance": "sodium cellulose sulfate", "values": [{"measurement": "CS MIC", "setting": "Bacteroides fragilis [1]; ATCC (first listed)", "result": ">0.625", "unit": "mg/mL"}, {"measurement": "CS MIC", "setting": "Bacteroides fragilis [1]; rma# 11647", "result": ">0.625", "unit": "mg/mL"}, {"measurement": "CS MIC", "setting": "Bacteroides fragilis [1]; rma# 11652", "result": ">0.625", "unit": "mg/mL"}, {"measurement": "CS MIC", "setting": "Fusobacterium nucleatum", "result": ">0.625** mg/ml"}, {"measurement": "lowest concentration of compound that inhibited growth", "setting": "Porphyromonas levii; Example 8, agar, 48 hours anaerobic, highest tested 625 μg/ml", "result": 40, "unit": "µg/mL"}, {"measurement": "CS MIC", "setting": "Porphyromonas levii; rma# 11425", "result": ">0.625", "unit": "mg/mL"}, {"measurement": "CS MIC", "setting": "Porphyromonas levii; rma# 11601", "result": 0.04, "unit": "mg/mL"}, {"measurement": "growth inhibition", "setting": "Eubacterium lentum; both strains", "result": "inhibited"}, {"measurement": "CS MIC", "setting": "Eubacterium lentum; rma# 9420", "result": 5, "unit": "mg/mL"}, {"measurement": "CS MIC", "setting": "Eubacterium lentum; rma# 11700", "result": 10, "unit": "mg/mL"}, {"measurement": "CS MIC", "setting": "[2]; [6]", "result": "NI (not inhibited by 10 mg/ml (the highest concentration tested))"}, {"measurement": "CS MIC", "setting": "[2]; [7]", "result": "NI (not inhibited by 10 mg/ml (the highest concentration tested))"}, {"measurement": "CS MIC", "setting": "[2]; [8]", "result": 10, "unit": "mg/mL"}, {"measurement": "growth inhibition", "setting": "[2]; at the concentrations tested", "result": "One strain of Bacteroides thetaiotaomicron was inhibited but three others were not"}, {"measurement": "CS MIC", "setting": "[2]; rma# 11604, Broth (study 2)", "result": "NI (not inhibited by 10 mg/ml (the highest concentration tested))"}, {"measurement": "CS MIC", "setting": "[2]; rma# 11651, Broth (study 2)", "result": "NI (not inhibited by 10 mg/ml (the highest concentration tested))"}, {"measurement": "Mean (SD) of O.D. reading for RT-PCR ELISA, HPV-11 probe", "setting": "HPV-11; 10 μg/ml at viral pretreatment", "result": "1.485 (0.045) O.D."}, {"measurement": "Mean (SD) of O.D. reading for RT-PCR ELISA, HPV-11 probe", "setting": "HPV-11; 100 μg/ml at viral pretreatment", "result": "0.049 (0.001) O.D."}, {"measurement": "Mean (SD) of O.D. reading for RT-PCR ELISA, HPV-11 probe", "setting": "HPV-11; 1000 μg/ml at viral pretreatment", "result": "0.038 (0.001) O.D."}, {"measurement": "area of growth inhibition around the well, diameter", "setting": "Gardnerella vaginalis [3]; 10 mg/ml in PBS, 0.2 ml in agar well", "result": 6, "unit": "mm"}, {"measurement": "growth inhibition", "setting": "Gardnerella vaginalis [3]; 4 different Gardnerella vaginalis strains, 10 mg/ml to 0.125 mg/ml", "result": "Dose dependent inhibition"}, {"measurement": "lowest initial concentration at which growth inhibition occurred", "setting": "Gardnerella vaginalis [3]; 4 different Gardnerella vaginalis strains, 10 mg/ml to 0.125 mg/ml tested", "result": 0.5, "unit": "mg/mL"}, {"measurement": "Average ± standard deviation (foci/well)", "setting": "BPV-1; 10 μg/ml", "result": "103 ± 6.3", "unit": "foci/well"}, {"measurement": "Average ± standard deviation (foci/well)", "setting": "BPV-1; 100 μg/ml", "result": "120 ± 8.4", "unit": "foci/well"}, {"measurement": "Average ± standard deviation (foci/well)", "setting": "BPV-1; 1,000 μg/ml", "result": "87 ± 45.1", "unit": "foci/well"}, {"measurement": "Average ± standard deviation (foci/well)", "setting": "BPV-1; 10,000 μg/ml", "result": "2 ± 1.3", "unit": "foci/well"}, {"measurement": "microbicidal effects", "setting": "BPV-1; C127-D10 cells pre-treated, except at 10 mg/ml", "result": "only weak microbicidal effects"}, {"measurement": "growth inhibition", "setting": "Gardnerella vaginalis [4]; both strains", "result": "inhibited"}, {"measurement": "CS MIC", "setting": "Gardnerella vaginalis [4]; rma# 12066", "result": 5, "unit": "mg/mL"}, {"measurement": "CS MIC", "setting": "Gardnerella vaginalis [4]; rma# 12262", "result": 5, "unit": "mg/mL"}, {"measurement": "CS MIC", "setting": "Bacteroides fragilis [5]; [6]", "result": "NI (not inhibited by 10 mg/ml (the highest concentration tested))"}, {"measurement": "CS MIC", "setting": "Bacteroides fragilis [5]; [7]", "result": 10, "unit": "mg/mL"}, {"measurement": "CS MIC", "setting": "Bacteroides fragilis [5]; [8]", "result": "NI (not inhibited by 10 mg/ml (the highest concentration tested))"}, {"measurement": "growth inhibition", "setting": "Bacteroides fragilis [5]; at the concentrations tested", "result": "one strain of Bacteroides fragilis was inhibited but three others were not"}, {"measurement": "CS MIC", "setting": "Bacteroides fragilis [5]; rma# 11647, Broth (study 2)", "result": "NI (not inhibited by 10 mg/ml (the highest concentration tested))"}, {"measurement": "CS MIC", "setting": "Bacteroides fragilis [5]; rma# 11652, Broth (study 2)", "result": "NI (not inhibited by 10 mg/ml (the highest concentration tested))"}]}]}
